Results on 29 molecules are retold here after patent publication US20230303540A1 (Merck Sharp & Dohme LLC, priority 2020, published 2023).

The target in the assay is GST-tagged truncated human mutant G2019S LRRK2 (Homo sapiens, UniProt Q5S007, G2019S). As to the kind of experiment: LRRK2 G2019S Km ATP LanthaScreen assay. The class given is biochemical. As to conditions: 134 μM ATP (Km ATP), LRRKtide substrate, mean IC50 values; read-out: LRRK2 pIC50 (converted). The method, boiled down: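 LanthaScreen TR-FRET read with fluorescein-LRRKtide and 134 μM ATP (Km) in Tris pH 8.5/10 mM MgCl2 buffer. The enzyme was preincubated 15 min with compound at room temperature, and the reaction ran 90 min at ambient temperature. Stopped with EDTA plus Tb anti-phospho-LRRKtide antibody; the 520/495 nm ratio gave a 4-parameter logistic IC50, mean of several runs.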
(In general: TR-FRET usually uses a lanthanide donor and a delayed reading to cut background.)
Regarding `O[C@@H]1COC[C@@H]1N1CCN(c2nc3nc(Nc4cnn(C5CC5)c4Cl)ncc3cc2Cl)CC1` (single isomer, unassigned) [Ex-16.2, (3S,4S) or (3R, 4R)-4-(4-(6-Chloro-2-((5-chloro-1-cyclopropyl-1H-pyrazol-4-yl)amino)pyrido[2,3-d]pyrimidin-7-yl)piperazin-1-yl)tetrahydrofuran-3-ol], the IC50 is 126 nM. `Cc1c(Nc2ncc3cc(Cl)c(N4CCN(C5COCC5O)CC4)cc3n2)cnn1C(F)F` (single isomer, unassigned) [Ex-13.7, (3S,4S) or (3R, 4R)-4-(4-(6-chloro-2-((1-(difluoromethyl)-5-methyl-1H-pyrazol-4-yl)amino)quinazolin-7-yl)piperazin-1-yl)tetrahydrofuran-3-ol]: the IC50 is 31.6 nM. As for `O[C@@H]1COC[C@@H]1N1CCN(c2cc3nc(Nc4cnn(C56CC(C5)C6)c4Cl)ncc3cc2Cl)CC1` (single isomer, unassigned) [Ex-13.2, (3S,4S) or (3R,4R)-4-(4-(2-((1-(bicyclo[1.1.1]pentan-1-yl)-5-chloro-1H-pyrazol-4-yl)amino)-6-chloroquinazolin-7-yl)piperazin-1-yl)tetrahydrofuran-3-ol], the IC50 was 3.81 nM. For the molecule `CC1(O)CCN(c2cc3nc(Nc4cnn([C@H]5CCN(C6COC6)C[C@@H]5F)c4Cl)ncc3cc2Cl)CC1` [Ex-3.6, 1-[6-chloro-2-({5-chloro-1-[(3S,4S)-3-fluoro-1-(oxetan-3-yl)piperidin-4-yl]-1H-pyrazol-4-yl}amino)quinazolin-7-yl]-4-methylpiperidin-4-ol], the IC50 is 0.625 nM. Then `Clc1cc2cnc(Nc3cnn(C45CC(C4)C5)c3Cl)nc2cc1N1CCC2(CCCO2)CC1` [Ex-3.40, N-[1-(bicyclo[1.1.1]pentan-1-yl)-5-chloro-1H-pyrazol-4-yl]-6-chloro-7-(1-oxa-8-azaspiro[4.5]decan-8-yl) quinazolin-2-amine], with 9.76 nM. Regarding `Cc1cc(Nc2ncc3ccc(N4C(=O)OC[C@@H]4C)cc3n2)n(C)n1` [Ex-8.1, (4S)-3-{2-[(1,3-dimethyl-1H-pyrazol-5-yl)amino]quinazolin-7-yl}-4-methyl-1,3-oxazolidin-2-one], the IC50 was 4.41 nM. On to `Cc1c(Nc2ncc3ccc(N(C)C4COC4)cc3n2)cnn1C1CCOCC1` [Ex-1.47, N-7-methyl-N-2-[5-methyl-1-(oxan-4-yl)-1H-pyrazol-4-yl]-N-7-(oxetan-3-yl)quinazoline-2,7-diamine], for which the IC50 is 38.8 nM. For the molecule `C[C@H]1COC(=O)N1c1ccc2cnc(Nc3cnn([C@@H]4CCN(C5COC5)C[C@H]4F)c3Cl)nc2c1` [Ex-7.2, (4S)-3-[2-({5-chloro-1-[(3R,4R)-3-fluoro-1-(oxetan-3-yl)piperidin-4-yl]-1H-pyrazol-4-yl}amino)quinazolin-7-yl]-4-methyl-1,3-oxazolidin-2-one], the IC50 is 0.625 nM.

As to `Cc1cc2cnc(Nc3cnn(C4CC4)c3C)nc2cc1N1CCN(C2(C)COC2)CC1` [Ex-5.11, N-(1-cyclopropyl-5-methyl-1H-pyrazol-4-yl)-6-methyl-7-[4-(3-methyloxetan-3-yl)piperazin-1-yl]quinazolin-2-amine], the IC50 was 2.82 nM. To `CCn1ncc(Nc2ncc3ccc(N4C(=O)[C@H]5CC[C@@H]4C5)nc3n2)c1C` (single isomer, unassigned) [Ex-15.4, (1S,4R) or (1R,4S)-2-{2-[(1-ethyl-5-methyl-1H-pyrazol-4-yl)amino]pyrido[2,3-d]pyrimidin-7-yl}-2-azabicyclo[2.2.1]heptan-3-one] belongs 12.5 nM; to `CC1(O)CC2(CN(c3cc4nc(Nc5cnn(C6CC6)c5)ncc4cc3Cl)C2)C1` [Ex-4.23, 2-{6-chloro-2-[(1-cyclopropyl-1H-pyrazol-4-yl)amino]quinazolin-7-yl}-6-methyl-2-azaspiro[3.3]heptan-6-ol], 2.47 nM; to `CCC1(N2CCN(c3cc4nc(Nc5cnn(C6CC6)c5Cl)ncc4cc3Cl)CC2)COC1` [Ex-4.30, 6-chloro-N-(5-chloro-1-cyclopropyl-1H-pyrazol-4-yl)-7-[4-(3-ethyloxetan-3-yl)piperazin-1-yl]quinazolin-2-amine], 15.7 nM. To `COC1CC(Cn2ncc(Nc3ncc4cc(Cl)c(N5CCN(C6(C)COC6)CC5)cc4n3)c2Cl)C1` (centres unmarked) [Ex-4.69, 6-chloro-N-{5-chloro-1-[(3-methoxycyclobutyl)methyl]-1H-pyrazol-4-yl}-7-[4-(3-methyloxetan-3-yl)piperazin-1-yl]quinazolin-2-amine] belongs 3.23 nM. As to `C[C@H]1COC(=O)N1c1ccc2cnc(Nc3cn(C4CCCCC4)nc3Cl)nc2c1` [Ex-10.1, (S)-3-(2-((3-Chloro-1-cyclohexyl-1H-pyrazol-4-yl)amino)quinazolin-7-yl)-4-methyloxazolidin-2-one], the IC50 was 7.01 nM. As to `Cc1cc2cnc(Nc3cnn(C45CC(C4)C5)c3Cl)nc2cc1N1CCN(C2(C)COCC2O)CC1` (single isomer, unassigned) [Ex-13.4, (3S,4S) or (3R, 4R)-4-(4-(2-((1-(bicyclo[1.1.1]pentan-1-yl)-5-chloro-1H-pyrazol-4-yl)amino)-6-methylquinazolin-7-yl)piperazin-1-yl)-4-methyltetrahydrofuran-3-ol], the IC50 is 0.267 nM. Take `COCC12CC(n3cc(Nc4ncc5cc(Cl)c(N6CCC7(CC6)COC(CO)C7)cc5n4)cn3)(C1)C2` (single isomer, unassigned) [Ex-3.16, (R) or (S)-{8-[6-chloro-2-({1-[3-(methoxymethyl)bicyclo[1.1.1]pentan-1-yl]-1H-pyrazol-4-yl}amino)quinazolin-7-yl]-2-oxa-8-azaspiro[4.5]decan-3-yl}methanol]: the IC50 is 0.218 nM. Take `CC1(O)CCN(c2cc3nc(Nc4cnn(C5CC5)c4)ncc3cc2Cl)CC1` [Ex-3.9, 1-{6-chloro-2-[(1-cyclopropyl-1H-pyrazol-4-yl)amino]quinazolin-7-yl}-4-methylpiperidin-4-ol]: the IC50 is 5.9 nM. Consider `Cc1nscc1Nc1ncc2cc(Cl)c(N3CCN(C4(C)COC4)CC3)cc2n1` [Ex-4.67, 6-chloro-7-[4-(3-methyloxetan-3-yl)piperazin-1-yl]-N-(3-methyl-1,2-thiazol-4-yl)quinazolin-2-amine], for which the IC50 was 23.8 nM. For `C[C@H]1COC(=O)N1c1ccc2cnc(Nc3cc(C(C)(C)C)ns3)nc2c1` [Ex-8.10, (4S)-3-{2-[(3-tert-butyl-1,2-thiazol-5-yl)amino]quinazolin-7-yl}-4-methyl-1,3-oxazolidin-2-one], the IC50 is 0.625 nM. Turning to `CC1(N2CCN(c3cc4nc(Nc5cnn6c5CCC6)ncc4cc3Cl)CC2)COC1` [Ex-4.20, 6-chloro-N-(5,6-dihydro-4H-pyrrolo[1,2-b]pyrazol-3-yl)-7-[4-(3-methyloxetan-3-yl)piperazin-1-yl]quinazolin-2-amine], the IC50 was 2.59 nM. For the molecule `Cc1c(Nc2ncc3ccc(N4C(=O)OC[C@H]4C)cc3n2)cnn1C1CCOCC1` [Ex-7.11, (4R)-4-methyl-3-(2-{[5-methyl-1-(oxan-4-yl)-1H-pyrazol-4-yl]amino}quinazolin-7-yl)-1,3-oxazolidin-2-one], the IC50 is 9.35 nM. For `C[C@@]1(N2CCN(c3cc4nc(Nc5cnn(C6CC6)c5C(F)F)ncc4cc3Cl)CC2)COC[C@@H]1O` [Ex-6.56, (3R,4R)-4-(4-(6-chloro-2-((1-cyclopropyl-5-(difluoromethyl)-1H-pyrazol-4-yl)amino)quinazolin-7-yl)piperazin-1-yl)-4-methyltetrahydrofuran-3-ol], the IC50 is 0.08 nM.

As to `Cc1cc(Nc2ncc3cc(Cl)c(N4CCC(C)(O)CC4)cc3n2)sn1` [Ex-6.8, 1-{6-chloro-2-[(3-methyl-1,2-thiazol-5-yl)amino]quinazolin-7-yl}-4-methylpiperidin-4-ol], the IC50 is 16.3 nM. In the case of `CN1CCC2CCN(c3cc4nc(Nc5cnn(C6CC6)c5Cl)ncc4cc3Cl)C2C1` (centres unmarked) [Ex-1.42, 6-chloro-N-(5-chloro-1-cyclopropyl-1H-pyrazol-4-yl)-7-(6-methyloctahydro-1H-pyrrolo[2,3-c]pyridin-1-yl)quinazolin-2-amine], the IC50 is 25.6 nM. In the case of `Cc1c(Nc2ncc3cc(Cl)c(N4CCN(C5(C)COCC5O)CC4)cc3n2)cnn1C` (single isomer, unassigned) [Ex-3.43, (3R,4R) or (3S,4S) 4-(4-{6-chloro-2-[(1,5-dimethyl-1H-pyrazol-4-yl)amino]quinazolin-7-yl}piperazin-1-yl)-4-methyloxolan-3-ol], the IC50 was 0.438 nM.

Regarding `Cc1c(Nc2ncc3cc(Cl)c(N4CCN(C5(C)COCC5O)CC4)cc3n2)cnn1C1CC1(F)F` (single isomer, unassigned) [Ex-6.42, (3S,4S) or (3R,4R) 4-[4-(6-chloro-2-{[1-(2,2-(R) or (S)difluorocyclopropyl)-5-methyl-1H-pyrazol-4-yl]amino}quinazolin-7-yl)piperazin-1-yl]-4-methyloxolan-3-ol], the IC50 was 21.4 nM. For `Cc1c(Nc2ncc3cc(Cl)c(N4CCN(C5COCC5O)CC4)cc3n2)cnn1CC(F)(F)F` (single isomer, unassigned) [Ex-6.37, (3S,4S) or (3R,4R) 4-[4-(6-chloro-2-{[5-methyl-1-(2,2,2-trifluoroethyl)-1H-pyrazol-4-yl]amino}quinazolin-7-yl)piperazin-1-yl]oxolan-3-ol], the IC50 is 6.35 nM. Turning to `CC1(O)CCN(c2cc3nc(Nc4cnn(C56CC(C5)C6)c4)ncc3cc2Cl)CC1` [Ex-6.11, 1-(2-{[1-(bicyclo[1.1.1]pentan-1-yl)-1H-pyrazol-4-yl]amino}-6-chloroquinazolin-7-yl)-4-methylpiperidin-4-ol], the IC50 was 0.808 nM. Turning to `Cc1c(Nc2ncc3cc(Cl)c(N4CCN(C5COCC5O)CC4)nc3n2)cnn1C1CC1` (single isomer, unassigned) [Ex-16.4, (3S,4S) or (3R,4R)-4-(4-{6-chloro-2-[(1-cyclopropyl-5-methyl-1H-pyrazol-4-yl)amino]pyrido[2,3-d]pyrimidin-7-yl}piperazin-1-yl)oxolan-3-ol], the IC50 was 83.8 nM.
